From patent publication US20060234919A1, “Use” (priority 2001, published 2006) come the findings set out here.

Experiment [1] deals with myeloperoxidase. Briefly: carrageenan induced myeloperoxidase accumulation in the hindpaw. It is filed as in vivo, rat. To be noted: 1000 μg/kg s.c.; 6 hours after treatment; saline controls 5.4±1.1; p<0.01. As for the experimental part:
The rats were treated s.c. with oxytocin (1000 μg/kg) (n=6) or saline (n=6) immediately before the carrageenan injection. The accumulation of myeloperoxidase in the rat right hindpaw was measured 6 hours after the treatment with oxytocin or saline, and carrageenan. To determine the recruitment of neutrophils in response to the carrageenan induced inflammation in the rat hindpaw, the paws were weighed and homogenised in 10 ml 0.5% hexadecyltrimethyl-ammonium bromide (Sigma Chemical Co, USA), and freeze-thawed, whereafter the myeloperoxidase activity of the supernatant was assessed. The enzyme activity was determined spectrophotometrically as the change in absorbance at 650 nm (25° C.) occuring in the redox reaction of H2O2-tetramethylbenzidine (Sigma Chemical Co, USA) catalysed by myeloperoxidase. Values are expressed as myeloperoxidase units/g tissue. […] The myeloperoxidase concentration (i.e. the neutrophil recruitment) in the hindpaw was 3.5±0.72 units/g tissue in the oxytocin-treated rats compared to 5.4±1.1 units/g in the saline-treated controls (p<0.01) (FIG. 6).

Experiment [2] has as its system TNF-alpha. Briefly: TNF-alpha in BALF in SDX-induced eosinophilic airway inflammation. Type of experiment: in vivo, rat. As to conditions: 1 mg/ml s.c. How it is done: 12 male Wistar rats aged 11-12 weeks, with an average weight of 323 g, were used in the study. The animals (n=3 in each group) were evaluated at 3 h and 24 h after induced inflammation. These were compared with control animals (n=3 in each group) examined at the same time points. An eosinophilic airway inflammation was induced by intratracheal instillation of SDX particles (G-200 Superfine, Pharmacia & Upjohn, Uppsala, Sweden) dissolved in phosphate-buffered saline (PBS) as previously described (Andersson S E, Zackrisson C, Hemsen A, Lundberg J M. Regulation of lung endothelin content by the glucocorticosteroid budesonide. Biochem Biophys Res Commun 1992, 188:1116-1121) and compared with that in control animals receiving a similar volume of PBS intratracheally. BAL was performed by instillation of 3+2+2 ml of PBS in the right stem bronchus distal to the upper lobe, and the procedure was repeated in the main bronchus on the left side. Immediately after the BAL procedure, the lungs were removed and frozen in liquid nitrogen for tissue analyses 3 h and 24 h after SDX instillation (n=3 animals at each time point) and 3 h and 24 after intratracheal instillation of saline into control animals (n=3). Oxytocin 1 mg/ml was given s.c.
TNF-alpha was measured with a rat-specific sandwich enzyme-linked immunosorbent assay (ELISA; Factor-Test-X, Genzyme, Cambridge, Mass.). […]

In experiment [3] the test system is carrageenan induced edema. Briefly: carrageenan induced edema of the rat hindpaw (plethysmometer). Type of experiment: in vivo. To be noted: for carrageenan induced edema, percentage increase from pre-treatment values in hindpaw volume: 1000 μg/kg s.c., p<0.05. How it is done:
Male Sprague-Dawley rats (260-300 g for s.c. injected and 340-380 g for i.c.v. injected) were used (B&K Universal A B, Sollentuna, Sweden). The animals arrived at least one week before experiments and were housed three-four per cage (except animals provided with i.c.v. cannulas that were housed individually) with free access to food (R36, Ewos, Södertälje, Sweden) and water. The light schedule was a 12/12 h light/dark cycle, and ambient temperature was 20±2° C.
Oxytocin and the oxytocin antagonist (1-deamino-2-D-Tyr-(OEt)-4-Thr-8-Orn-oxytocin) (Ferring, Malmö, Sweden) were dissolved in physiological saline and injected in a volume of 1 ml/kg s.c. in the dorsal neck. Dexamethasone (Decadron®, Merck, Sharp & Dome, USA) was administered intramuscularly (i.m.). Oxytocin given i.c.v. was dissolved in a volume of 5 μl physiological saline and slowly injected over a period of 1 minute through the i.c.v. guide cannula via a 25 G stain-less-steel injection needle connected to a 10 μl Hamilton syringe via a polyethylene tube. Controls received saline in the same amounts.
The model of inflammation used, the carrageenan induced edema, is a commonly used model for studies of inflammation and for testing novel anti-inflammatory drugs (Winter C A, Risley E A, Nuss G W. Carrageenan-induced edema in hind paw of the rat as an assay for anti-inflammatory drugs. Proc Soc Exp Biol Med 1962; 111:544-7). To produce acute inflammation, carrageenan, 2 mg in 0.1 ml saline, was injected s.c. into the plantar region of the rat right hindpaw.
The rats were treated s.c. with oxytocin (1.0, 10, 100 or 1000 μg/kg (n=8 in each group) or saline (n=8+8) immediately before the carrageenan injection. The edema of the right hindpaw was measured (volume in ml) using a plethysmometer (Ugo Basile, type 7150, Florence, Italy) before treatment, half an hour after, one hour after, and then every hour up to 6 or 10 hours after treatment.
The results are presented as means±SD. Statistical analysis was performed by means of a 1-way ANOVA, followed by Fisher's test for post-hoc comparisons. In the analysis of myeloperoxidase accumulation, a Student's t-test was used. P-values of 0.05 or less were regarded as statistically significant.
The rats were treated s.c. with oxytocin (1000 μg/kg) and the oxytocin antagonist (1000 μg/kg) (the antagonist was given 30 minutes before oxytocin) (n=8), the oxytocin antagonist alone (1000 μg/kg) (n=8) or saline (n=8) immediately before the carrageenan injection. Measurements as in Example 1.
The rats were treated i.c.v. with oxytocin (1.0 μg/kg) (n=6) or saline (n=7) immediately before the carrageenan injection. Measurements as in Example 1. The animals were anaesthetised with sodiumpentobarbital (50 mg/kg) (Apoteksbolaget, Sweden) injected intraperitoneally (i.p.). The scull was uncovered, a hole was drilled in the right parietal bone and a guide cannula (21 G) was fixed stereotactically to the scull by means of acrylic dental cement. The coordinates were 1.00 mm posterior and 1.30 mm lateral to the bregma. […] The injection needles (25 G) reached 3.80 mm below the dura mater, with the tip of the needle in the right lateral ventricle. The animals were allowed one week of recovery after the operation. At the end of the experiment, the placement of the guide cannula was checked by injection of 2 μl of toluidine blue.
The rats were treated i.m. with dexamethasone (10 mg/kg) (n=6) or saline (n=6) immediately before the carrageenan injection. The edema of the right hindpaw was measured using the plethysmometer before treatment, and at 2, 4 and 6 hours after treatment.

Turning to Oxytocin, the “myeloperoxidase concentration (neutrophil recruitment) in the hindpaw” value in experiment [1] was found to be 3.5±0.72 units/g tissue. Besides, the “TNF-alpha concentration in BALF” value in experiment [2] (3 h after SDX provocation) is “effectively inhibited the increase”. Also, in experiment [2] (24 h after SDX provocation), the “TNF-alpha level relative to animals not receiving oxytocin” value was determined as 32%. In experiment [3] (1.0 μg/kg i.c.v., p=0.13), the “effect on carrageenan induced paw edema” value is recorded as “did not decrease the paw edema”. Besides, the “effect on carrageenan induced edema” value is given as “No effect” in experiment [3] (1.0 μg/kg s.c.); “No effect” in experiment [3] (10 μg/kg s.c.); “reduced the edema significantly” in experiment [3] (100 μg/kg s.c., 4-10 hours after the injection). The “carrageenan induced edema, percentage increase from pre-treatment values in hindpaw volume” value in experiment [3] (1 hour after the injection, saline controls 43±11%) stood at 21±16%; in experiment [3] (2 hours after the injection, saline controls 61±22%), 30±17%; in experiment [3] (3 hours after the injection, saline controls 79±21%), 41 ±16%. Further, the “hindpaw volume compared to controls” value in experiment [3] (oxytocin 1000 μg/kg s.c. with oxytocin antagonist 1000 μg/kg s.c. given 30 minutes before, 1-10 hours after carrageenan) is given as “significant reduction of the hindpaw volume”; in experiment [3] (oxytocin 1000 μg/kg s.c. with oxytocin antagonist 1000 μg/kg s.c., at 24 hours) it was “significant difference was gone”.
